Assay results: publication PMC8424300, “Identification of novel microtubule inhibitors effective in fission yeast and human cells and their effects on breast cancer cell lines” (Open Biology, 2021)
Like-named read-outs stand apart in the source and are kept apart here. Blank lines part the entries; values can stand above or below the compound they belong to.

Key:
[1] = tested on: CAL51 cells; test: Clonogenic (colony-forming) assay; assay type: cell-based, human; conditions: 0.1 nM BI2536 alone, 12 h exposure, 9 days growth
Procedure: Finally, a clonogenic assay was used to further evaluate the synergy effects between the L1 and Plk1 inhibitors to inhibit colony formation of breast cancer CAL51 cells after a 12 h drug exposure. The percentages of colony formation of cells treated with 0.1 nM BI2536 alone and 0.5 µM L1 alone were 89% and 67%, respectively, while cells treated with both 0.1 nM BI2536 and 0.5 µM L1 together were 2% (figure 10) indicating strong synergetic effects in colony formation.
Figure 10. Quantification of the colony formation experiments (n = 3) after a 12 h exposure. CAL51 cells were treated with vehicle control, 0.1 nM BI2536, 0.5 µM L1 or 0.1 nM BI2536 and 0.5 µM L1 for 12 h. Cells were grown for 9 days in fresh media after 12 h exposure. Mean ± s.e.m. (n = 3) is shown.
CAL51 cells were plated at a density of 200 cells per 60 mm tissue culture dish. After 24 h, they were treated with vehicle (DMSO), 0.1 nM BI2538, 0.5 µM L1 or the combination of 0.1 nM BI2538 and 0.5 µM L1, respectively, for 12 h. After an exposure, the cells were washed with warm sterile PBS, and incubated for additional 9 days in fresh media. After the incubation, cells were fixed and stained with a 20% MeOH: 0.01% crystal violet solution for 30 min. Colonies were counted using a stereomicroscope in three independent experiments.

[2] = tested on: HeLa cells; test: Time-lapse live imaging of mitotic progression and cell fate in HeLa cells (H2B-mCherry, EGFP-α-tubulin); assay type: cell-based, human; conditions: for mitotic duration (prophase to cytokinesis): 24 h imaging, DMSO control 77 ± 6 min; for phenotype after mitotic arrest: 0.1 and 0.25 µM compound
Procedure: To determine whether these 34 compounds also induce mitotic abnormalities in human cells, a second screen of these compounds was conducted using HeLa cells. We used time-lapse microscopy to monitor mitotic progression in HeLa cells expressing mCherry-tagged histone H2B to mark chromatin, and EGFP-tagged α-tubulin to monitor microtubules over a 24 h time period in the presence of 2 µM of each of the 34 compounds. The duration of mitosis was determined by live-cell imaging, defined as the period from prophase to cytokinesis based on chromatin and microtubule morphologies (figure 2a). The control DMSO-treated cells progressed through mitosis with a mean mitotic duration of 77 ± 6 min. Among the 34 compounds we tested, nine caused a significant increase in mitotic duration in human cells (figure 2a), ranging from 122 ± 42 min (F15) to 720 ± 53 min (C16). […] As described in the Discussion, we have not carried out a detailed analysis for B8 in this study. To determine whether these cell deaths were caused by apoptosis, caspase activity was assayed for 24 h using time-lapse microscopy in the presence of the 12 compounds. Caspase 3 and Caspase 7 activities were observed 12–24 h after the addition of the compounds (electronic supplementary material, figure S1A). There were also other indications of apoptosis including the morphological chances reminiscing of membrane blebbing, chromatin condensation and cell explosion (electronic supplementary material, figure S1B). Caspase-mediated apoptosis induction is similar to the effects of mitotic arrest caused by anti-microtubule drugs in HeLa cells. […] We conclude that these 12 compounds cause mitotic arrest followed by cell death through apoptotic activation.
Figure 2. Effect of compounds on mitotic progression in HeLa cell (a). Duration of mitosis was analysed by live imaging of HeLa cells stably expressing H2B-mcherry (red) and EGFP-a tubulin (green) treated in the presence of 0.5 µM (K1, L1, J1) or 2 µM (C16, E2, O12, M2, I15, J3, I2, A15, F15) compound for 24 h and the time in mitosis was measured in 200 cells. DMSO-treated cells are shown, which served as the vehicle control. Show mean as ‘+’. (b). The Cell fate after mitosis (normal division, abnormal division or cell death) was quantitatively assessed after the mitotic arrest observed in (a). (c) Dose-dependent change of phenotypes after mitotic arrest with K1, L1 and J1.
For live-cell imaging experiments, 200 000 cells were seeded onto glass-bottom culture dishes (MatTek P35GC-1.5-14-C). Cells were grown overnight before the addition of the compound, and the culture media was replaced with fresh media lacking phenol red to limit phototoxicity before imaging.
Live-cell imaging was performed in a LCV110 U VivaView FL incubator microscope (Olympus) equipped with an X-Cite-exacte illumination source (Excelitas Technologies) and Orca-R2 CCD camera (Hamamatsu Photonics). For screening, images were acquired with a 20 × objective every 15 min for 24–48 h in the differential interference contrast (DIC), m-cherry and GFP channels. For assessment of apoptosis, the cells were monitored every 15 min for 24 h. Individual cells were manually analysed using the CellCognition browser.

[3] = molecular target: T1, porcine brain tubulin heterodimer (Sus scrofa, UniProt P02550+P02554); test: In vitro tubulin polymerization assay; assay type: biochemical; conditions: 37°C; for IC50: figure 3c, 1 h
T1 construct: highly purified porcine brain tubulin heterodimer; purchased Cytoskeleton T240 (kit BK011P); host or cells: porcine brain tissue
Procedure: To determine whether the 12 compounds affected mitotic spindle organization by directly interfering with tubulin polymerization, we performed in vitro tubulin polymerization assays. […] Tubulin polymerization was monitored every 1 min by measuring fluorescence absorbance at 340 nm for 1 h.
Figure 3. […] Tubulin was incubated with 5 µM of the compounds and DMSO for 60 min at 37°C. The fluorescence increase was monitored every minute at 340 nm. […] (b). […] Nocodazole (NOC) was used as the control. (c). […] (d) The same experiment as (c) but carried out at a different time.
The Tubulin Polymerization HTS Assay Kit (Cytoskeleton, BK011P) was used according to the manufacturer's instructions. All components were added into a 96-well microtiter plate (Corning Costar, cat. no. 3686), then the tubulin reaction mixture was quickly added to the wells, and tubulin polymerization was initiated and monitored every 1 min at 37°C for 1 h by recording fluorescence of excitation wavelength at 340 nm and emission at 450 nm. The tubulin reaction mixture was composed of 80 mM PIPES (pH 6.9), and 1 mM MgCl2, 1 mM EGTA, 1 mM GTP and 2 mg ml^−1 of highly purified porcine brain tubulin heterodimer (Cytoskeleton, cat. no. T240).

[4] = tested on: BT549, CAL51 and MB-157 breast cancer cell lines; test: Viability dose-response in breast cancer cell lines; assay type: cell-based; conditions: Homo sapiens, 96 h; range over the breast cell lines and the non-cancer cell line MCF-10A; 4 days of treatment
Procedure: The sensitivity of the inhibitors L1, J3, A15 and M2 were evaluated in three breast cancer cell lines, (BT549, CAL51 and MB-157) and a non-cancer cell line from the human mammary gland, MCF-10A (figure 8). Drug sensitivity was determined by culturing breast cancer cell lines (black lines) and the non-cancer cell line (red line) with a range of concentrations of each compound, and viability was measured after 4 days of treatment in triplicate.
Figure 8. Dose–response curves in three cancer cell lines (BT549, CAL51 and MB-157) are shown in black and non-cancer cell line; MCF-10A is shown in red. They were subjected to a dose–response matrix of the tubulin inhibitor, L1, A15, M2 and J3, respectively. Viability relative to the vehicle control was measured […] after treatment. Mean ± s.e.m. for n = 3 experiments is shown.
(§1) Cells were plated in 384-well plates at a density of 800 cells per well in 22.5 µl of media. After 24 h, 2.5 µl drug was diluted in media and was added to each well. Following 5 days of incubation, viability was assessed using CellTiter-Glo (Promega) according to the manufacture's protocol. Luminescence in each well was measured using a Synergy Neo2 plate reader (BioTek).

[5] = tested on: MDR-sup fission yeast; test: Phenotypic assay of microtubule organization in MDR-sup strain expressing GFP-atb2; assay type: cell-based, Schizosaccharomyces pombe; conditions: same phenotype = no interphase microtubules or mitotic spindles detectable, tubulin in nucleus; figure S2
Procedure: We have previously screened a collection of 10 371 small molecules to identify compounds that inhibit the growth of a multiple-drug-sensitive fission yeast strain (MDR-sup). We selected 248 compounds (2.4% of the total) that inhibited fission yeast cell growth rate by at least 50% (figure 1a) and subsequently conducted a phenotypic screen of these to identify drugs that affect microtubule organization (figure 1b). After the MDR-sup cells were treated with 5 µM of each compound for 3 h, microtubules were monitored using GFP tagged α-tubulin Atb2 and live-cell fluorescence microscopy. In untreated interphase cells, microtubules form long cytoplasmic arrays that run parallel to the long cellular axis, and in mitotic cells, microtubules form a bipolar spindle in the nucleus and the cytoplasmic microtubules disappear (figure 1c(i), arrow). […] This screen identified 34 compounds that induced cytological phenotypes indicative of defects in microtubule organization or function.
Figure 1. Phenotypic screening in MDR-sup fission yeast (a). Growth assay screening using MDR-sup strain. The optical density was measured with 20 µM of each compound and 248 compounds that gave at least 50% growth inhibition were used for further phenotyping marked by the red lines. Growth was normalized to DMSO-treated cells. (b) Schematic representation of the screening workflow. (c) Examples of the phenotypic assay using L1, P2 and B8 in the MDR-sup strain expressing GFP-atb2 (tubulin) are shown. Cells were incubated in 5 µM compound for 3 h and atb2 signals were detected in living cells. (i) Cells in absence of any compound. In interphase cells, α-tubulin Atb2 protein was detected in the nucleus and interphase microtubules, while mitotic spindles were detected in mitotic cells (arrows). (ii) In the presence of L1, microtubules were depolymerized and tubulin signals were detected distributed throughout the nucleus. (iii) In the presence of P2, short spindles were detected but anaphase spindles were not. (iv) In the presence of B8, interphase microtubules were not detected, while, dots were detected. […]

[6] = tested on: WTβIII HeLa cell line; test: Cell viability in HeLa cell line overexpressing wild-type βIII tubulin; assay type: cell-based; conditions: Homo sapiens
Procedure: One of the main mechanisms of drug resistance is due to the overexpression of class III β tubulin. […] The ability of L1 to overcome β III tubulin-mediated multidrug resistance was evaluated in two HeLa isogenic cell lines.
Figure 7.
as §1

[7] = read-out: IC50 of tubulin polymerization

T1 sequence (P02554 whole entry): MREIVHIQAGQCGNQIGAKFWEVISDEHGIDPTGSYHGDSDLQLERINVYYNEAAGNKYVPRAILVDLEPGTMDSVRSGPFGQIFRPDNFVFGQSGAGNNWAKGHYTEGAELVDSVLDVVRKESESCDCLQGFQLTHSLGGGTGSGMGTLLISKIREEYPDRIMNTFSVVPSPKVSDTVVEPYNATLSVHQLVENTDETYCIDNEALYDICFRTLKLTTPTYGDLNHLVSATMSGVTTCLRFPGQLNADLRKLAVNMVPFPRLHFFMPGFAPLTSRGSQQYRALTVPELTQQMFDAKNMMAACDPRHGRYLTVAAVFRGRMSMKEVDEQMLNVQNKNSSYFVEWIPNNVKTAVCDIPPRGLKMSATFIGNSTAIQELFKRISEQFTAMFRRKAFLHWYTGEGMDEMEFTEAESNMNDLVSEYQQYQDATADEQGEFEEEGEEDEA
T1 sequence (P02550 whole entry): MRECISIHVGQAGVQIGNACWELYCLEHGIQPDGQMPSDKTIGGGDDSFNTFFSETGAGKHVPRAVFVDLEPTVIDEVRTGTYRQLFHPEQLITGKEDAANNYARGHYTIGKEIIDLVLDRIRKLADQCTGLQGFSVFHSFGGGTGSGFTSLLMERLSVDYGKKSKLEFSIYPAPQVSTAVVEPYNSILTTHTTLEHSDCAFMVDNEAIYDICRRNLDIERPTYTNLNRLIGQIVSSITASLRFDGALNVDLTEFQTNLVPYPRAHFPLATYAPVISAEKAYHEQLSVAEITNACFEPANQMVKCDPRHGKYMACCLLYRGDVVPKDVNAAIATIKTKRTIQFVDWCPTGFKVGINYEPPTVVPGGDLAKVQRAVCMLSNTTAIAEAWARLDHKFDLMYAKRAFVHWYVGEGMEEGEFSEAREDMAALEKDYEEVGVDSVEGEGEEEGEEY

Compound: CC[C@@H]1C(=O)N(C)c2cnc(Nc3ccc(C(=O)NC4CCN(C)CC4)cc3OC)nc2N1C1CCCC1 [BI2536, reference compound]
percentage of colony formation [1]: 89%

Compound: Nc1nn(S(=O)(=O)c2c(F)c(F)c(F)c(F)c2F)cc1-c1ccc(Cl)cc1 [C16]
mitotic duration (prophase to cytokinesis) ([2]; 2 µM compound): 720 ± 53 min

effect on in vitro tubulin polymerization ([3]; 5 µM compound, 60 min): no observable effects on polymerization
Compound: CC(C)(C)C#C/C=N/n1nnc(-c2ccccc2)n1 [F15]
mitotic duration (prophase to cytokinesis) ([2]; 2 µM compound): 122 ± 42 min

Compound: COc1ccc(C2Oc3ccc4ccccc4c3C=C2[N+](=O)[O-])cc1OC (centres unmarked) [J1]
cell fate ([2]; 0.5 µM compound): arrested cells initially in mitosis, followed by cell death | cell fate ([2]; 2 µM compound): immediately induced cell death independent of the phase of the cell cycle | phenotype after mitotic arrest [2]: abnormal multipolar, asymmetric cell divisions, generating 3–4 daughter cells

IC50 [3, 7]: 590 nM
Compound: O=[N+]([O-])C1=Cc2ccccc2OC1c1ccc2c(c1)OCO2 (centres unmarked) [K1]
cell fate ([2]; 0.5 µM compound): arrested cells initially in mitosis, followed by cell death | cell fate ([2]; 2 µM compound): immediately induced cell death independent of the phase of the cell cycle | phenotype after mitotic arrest [2]: abnormal multipolar, asymmetric cell divisions, generating 3–4 daughter cells

IC50 [3, 7]: 220 nM
Compound: N#CCCS(=O)(=O)c1nnnn1-c1ccccc1 [M2]
IC50 [4]: 1400 to 1900 nM

Compound: COC(=O)Nc1nc2ccc(C(=O)c3cccs3)cc2[nH]1 [NOC, nocodazole, reference compound]
microtubule phenotype with known inhibitors of microtubule polymerization [5]: same phenotype | IC50 ([3]; IC50 of tubulin polymerization): 560 nM

Compound: CCCCNC(=O)n1c(NC(=O)OC)nc2ccccc21 [benomyl]
microtubule phenotype with known inhibitors of microtubule polymerization [5]: same phenotype

IC50 [6]: 5.6 nM
Compound: CC(=O)O[C@H]1C(=O)[C@@]2(C)[C@H]([C@H](OC(=O)c3ccccc3)[C@]3(O)C[C@H](OC(=O)[C@H](O)[C@@H](NC(=O)c4ccccc4)c4ccccc4)C(C)=C1C3(C)C)[C@]1(OC(C)=O)CO[C@@H]1C[C@@H]2O [paclitaxel]
